Reference: ChEMBL document CHEMBL1201862, “PubChem BioAssay data set” (2004)
Active and inactive are the calls of the source. Cut-off read from the data, not from the text of the source, for most assays here: actives have a measured EC50 and inactives only a lower limit.

Assays:
[1] = system: Streptococcus sp. 'group A'; test: growth inhibition of control SK(-) GAS strain, dose response, counter-screen for streptokinase expression inhibitor project, luminescence, kanamycin, BacTiterGlo, confirmation (AID 1900); type: functional, organism-based; settings: Streptococcus sp. 'group A'
Streptokinase A = biological target: T1, Streptokinase A (Streptococcus pyogenes serotype M1, UniProt P10520); test: S. pyogenes streptokinase expression inhibitors, potency, dose response, plasminogen activation absorbance, OD405 (AID 1914); type: functional, Streptococcus pyogenes M1 GAS;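 note: secreted streptokinase activity via plasminogen activation per viability signal from cell pellet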
T1 sequence (P10520 whole entry): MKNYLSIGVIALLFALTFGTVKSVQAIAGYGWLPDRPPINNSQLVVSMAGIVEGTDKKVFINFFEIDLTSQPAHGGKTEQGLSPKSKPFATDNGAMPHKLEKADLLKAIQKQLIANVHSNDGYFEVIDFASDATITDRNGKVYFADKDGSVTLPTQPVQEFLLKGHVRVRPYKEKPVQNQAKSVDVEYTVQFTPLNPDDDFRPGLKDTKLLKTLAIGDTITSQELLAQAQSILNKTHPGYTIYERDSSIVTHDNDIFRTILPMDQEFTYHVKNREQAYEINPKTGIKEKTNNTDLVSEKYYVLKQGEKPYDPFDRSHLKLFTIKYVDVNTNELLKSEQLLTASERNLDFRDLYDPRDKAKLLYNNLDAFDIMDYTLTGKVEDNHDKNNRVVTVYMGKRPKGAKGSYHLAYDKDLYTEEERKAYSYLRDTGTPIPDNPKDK

Streptococcus = test: Group A Streptococcus viability loss, dose response, counter-screen for streptokinase expression inhibitor project, luminescence, BacTiterGlo (AID 1915); type: functional, organism-based; settings: Streptococcus;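 note: potency for reduction of bacterial viability or growth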
Cytochrome P450 3A4 = Cytochrome P450 3A4 (Homo sapiens, UniProt P08684);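 note: CYP3A4 tested as one member of a cytochrome P450 panel screen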
Chain of Cytochrome P450 3A4 (P08684 whole entry): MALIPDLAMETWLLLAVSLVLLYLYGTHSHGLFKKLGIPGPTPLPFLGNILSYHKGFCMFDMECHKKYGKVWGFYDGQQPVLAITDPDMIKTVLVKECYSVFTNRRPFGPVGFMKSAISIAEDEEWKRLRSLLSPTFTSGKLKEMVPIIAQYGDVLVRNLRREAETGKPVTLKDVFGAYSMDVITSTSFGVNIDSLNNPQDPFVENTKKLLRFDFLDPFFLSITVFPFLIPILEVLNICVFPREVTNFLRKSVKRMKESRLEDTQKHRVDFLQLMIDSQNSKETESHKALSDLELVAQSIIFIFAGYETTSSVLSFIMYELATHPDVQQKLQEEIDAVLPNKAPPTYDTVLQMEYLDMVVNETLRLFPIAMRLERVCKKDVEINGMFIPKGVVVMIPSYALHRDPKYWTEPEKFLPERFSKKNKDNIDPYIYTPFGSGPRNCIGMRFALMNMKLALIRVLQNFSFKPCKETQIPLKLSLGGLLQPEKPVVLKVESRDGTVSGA

[2] = HEp-2 cell cytotoxicity, dose response, cytotoxicity control for RSV inhibitor project, HTS (AID 2410); type: functional; settings: human respiratory syncytial virus
[3] = inhibitors of intracellular T. cruzi replication, confirmation, NIH3T3 host cells, beta-gal luminescence (AID 2044); type: functional, cell-based;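 note: intracellular parasites grown in NIH/3T3 mouse fibroblasts as host cells; luminescent beta-galactosidase reporter signal from transgenic T. cruzi replicating inside host cells; inhibitors lower the luminescence signal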
[4] = cytotoxicity toward NIH3T3 fibroblasts, dose response, counter-screen, cell-based, ATP luminescence, mouse fibroblasts (AID 2010); type: functional; settings: NIH3T3;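 note: cells exposed to compound for about 90 hours before reading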
cells = type: functional

## COc1ccc(C(=O)Nc2ccccc2-c2nnn(CC(=O)Nc3ccc4c(c3)OCCO4)n2)cc1
[1]
  EC50: 41.1 µM (active)
Streptokinase A
  EC50: > 150 µM (not active)
Streptococcus
  EC50: > 150 µM (inconclusive)

## N#Cc1ccccc1-c1ccc2ncnc(N3CCNCC3)c2c1
Cytochrome P450 3A4
  AC50: 31.6 µM (inconclusive)

## CN1CCN(C(=O)CCCN2C(=O)/C(=C/c3ccc(Cl)cc3)SC2=S)CC1
[2]
  CC50: 13.5 µM (active)

## Cc1cc(N/N=C/c2cccc(Br)c2)nc2ccccc12
[1]
  EC50: 7.14 µM (active)
Streptokinase A
  EC50: > 150 µM (not active)
Streptococcus
  EC50: 7.4 µM (active)

## O=C(NCc1ccco1)C(c1ccccc1F)N(Cc1cccnc1)C(=O)Cn1nnc2ccccc21 (stereo not given)
[3]
  EC50: 1.68 µM (active)
[4]
  EC50: > 60 µM (not active)

## COC(=O)c1nn(-c2ccc(OC)cc2)c(=O)cc1Oc1cccc(Cl)c1
Cytochrome P450 3A4
  AC50: 39.8 µM (inconclusive)

## Fc1ccc(CNc2nc(-c3cccnc3)nc3ccccc23)cc1
[3]
  EC50: 0.67 µM (active)
[4]
  EC50: > 60 µM (not active)

## CCN(CCCNC(=O)CNC(=O)c1nn(-c2ccc(OC)cc2)c(=O)c2ccccc12)c1cccc(C)c1
[2]
  CC50: 46 µM (active)

## Cc1nc(NC(=O)c2ccc(Cl)cc2)sc1-c1csc(Nc2cccc(F)c2)n1
[1]
  EC50: 1.67 µM (active)
Streptokinase A
  EC50: > 150 µM (not active)
Streptococcus
  EC50: 21.4 µM (active)

## CC(C)(C)n1nnnc1C(c1cccnc1)N1CCN(c2ccccc2)CC1 (stereo not given)
[3]
  EC50: 0.666 µM (active)
[4]
  EC50: > 60 µM (not active)

## Cc1ccc(OCC(=O)Nc2cc(S(=O)(=O)N3CCCCC3)ccc2N2CCN(C)CC2)c(C)c1
[3]
  EC50: 0.171 µM (active)
[4]
  EC50: > 60 µM (not active)

## Cc1ccc(C)c(-c2nnc(NC(=O)CCS(=O)(=O)c3ccccc3)o2)c1
[1]
  EC50: 8.03 µM (active)
Streptokinase A
  EC50: > 150 µM (not active)
Streptococcus
  EC50: 141 µM (active)

## CCOC(=O)C1CCN(C2=C(NS(=O)(=O)c3ccc(Cl)cc3)C(=O)c3ccccc3C2=O)CC1
[1]
  EC50: 8.11 µM (active)
Streptokinase A
  EC50: 27 µM (active)
Streptococcus
  EC50: > 150 µM (not active)

## N[C@@H](Cc1c[nH]cn1)C(=O)O [HISTIDINE]
Cytochrome P450 3A4
  AC50: 0.794 µM (inconclusive)

## CC(C)(C)NC(=O)c1ccc(NC(=O)c2ccccc2-c2ccccc2C(=O)O)cc1
cells
  IC50: 6.42 µM (active)

## O=C(Nc1ccccc1N1CCN(C(=O)c2ccc(Cl)cc2)CC1)c1ccc(Br)cc1
[3]
  EC50: 1.29 µM (active)
[4]
  EC50: > 60 µM (not active)

## Cc1ccc(C2(C(F)(F)F)N=C3Sc4cc(C)cc(C)c4N3C(=O)N2)cc1 (stereo not given)
[2]
  CC50: 23 µM (active)

## CCCSc1nsc(NC(=O)CCC)n1
[3]
  EC50: 1.04 µM (active)
[4]
  EC50: > 60 µM (not active)

## CSc1ccc(S(=O)(=O)NCC(=O)OCC(=O)N2CCCC2=O)cc1[N+](=O)[O-]
[1]
  EC50: 4.7 µM (active)
Streptokinase A
  EC50: > 150 µM (not active)
Streptococcus
  EC50: > 150 µM (not active)

## COc1cccc(C(=O)OCC(=O)c2ccc(Br)s2)c1OC
cells
  IC50: 29.7 µM (active)

## CC(C)CCn1c(=O)c(C(=O)N/N=C/c2cccc(F)c2)c(O)c2ccccc21
[1]
  EC50: 2.24 µM (active)
Streptococcus
  EC50: 7.41 µM (active)

## CCCCOc1ccc(-c2cn3ccccc3n2)cc1[N+](=O)[O-]
[2]
  CC50: 38.7 µM (active)

## c1ccc(-c2cccc(N3CC[C@@]4(CCCNC4)C3)c2)cc1
Cytochrome P450 3A4
  AC50: 15.8 µM (inconclusive)

## Cc1ccc(N2C(=O)CC(Sc3nc4ccccc4o3)C2=O)cc1Cl (stereo not given)
[3]
  EC50: 2.16 µM (active)
[4]
  EC50: 8.27 µM (active)

## COc1ccc(-n2c(=O)c(-c3cccs3)nc3cnc(Nc4cccc(OC)c4)nc32)cc1
Cytochrome P450 3A4
  AC50: 1.58 µM (inconclusive)

## COc1cc2c3cc1Oc1c(OC)c(OC)cc4c1[C@@H](Cc1ccc(O)c(c1)Oc1ccc(cc1)C[C@@H]3N(C)CC2)CN(C)C4
Cytochrome P450 3A4
  AC50: 2.51 µM (inconclusive)

## CC1CCCC(C)N1c1nnc(NC(=O)c2cc(-c3ccc(Br)cc3)on2)s1 (stereo not given)
[1]
  EC50: 2.33 µM (active)
Streptokinase A
  EC50: > 150 µM (not active)
Streptococcus
  EC50: 25.2 µM (active)

## CC[C@H]1C2=C3C(CC[C@H]4C(OCc5ccc(F)cc5C(F)(F)F)OC[C@](C)([C@@H]34)N(C(=O)OC(C)(C)C)C2)C(COC)C1COC (stereo not given in full)
Cytochrome P450 3A4
  AC50: 10 µM (inconclusive)

## CNC(=O)c1sc(-c2cccnc2)nc1C
Cytochrome P450 3A4
  AC50: 31.6 µM (inconclusive)

## CCS(=O)(=O)Nc1ccc(C2=NN(C(=O)c3ccco3)C(c3cccc(F)c3)C2)cc1 (stereo not given)
[2]
  CC50: 32.9 µM (active)

## Cc1ccc(S(=O)(=O)Nc2cccc(-c3ccc(N4CCCCCC4)nn3)c2)cc1C
[2]
  CC50: 25.8 µM (active)

## CC(C)OC(=O)COc1ccc(-c2ccccc2)cc1
cells
  IC50: 6.13 µM (active)

## CN(C)CCOCCOc1ccc(Cl)cc1Br
[3]
  EC50: 0.937 µM (active)
[4]
  EC50: > 60 µM (inconclusive)

## CCCCC(=O)Nc1ccc(C(=O)OC2CCCCC2)cc1
[2]
  CC50: 22.8 µM (active)

## Cc1cc(O)c(NC(=O)c2cc([N+](=O)[O-])ccc2Cl)cc1C
[2]
  CC50: 23.3 µM (active)

## CCN(c1ccccc1)S(=O)(=O)c1ccc(OC)c(NC(=O)CNCCc2ccccc2)c1
[3]
  EC50: 1.72 µM (active)
[2]
  CC50: 14.4 µM (active)
[4]
  EC50: > 60 µM (not active)

## Clc1ccccc1Sc1ccc(-c2ccccn2)s1
[1]
  EC50: 17.6 µM (active)
Streptokinase A
  EC50: > 150 µM (not active)
Streptococcus
  EC50: > 150 µM (not active)

## CN1CCN(c2ccc(S(=O)(=O)N3CCCCC3)cc2NC(=O)COc2cccc(Cl)c2)CC1
[3]
  EC50: 0.629 µM (active)
[4]
  EC50: > 30 µM (not active)

## Cc1ccc2sc(NNC(=O)c3cc(-c4cccs4)nc4ccccc34)nc2c1C
[1]
  EC50: 0.758 µM (active)
Streptococcus
  EC50: 1.48 µM (active)

## Cc1nc(S)c2c(n1)-c1ccccc1CC21CCCCC1
[1]
  EC50: 1.15 µM (active)
Streptococcus
  EC50: 3.57 µM (active)

## N#C/C(=N\Nc1ccc(S(=O)(=O)N2CCOCC2)cc1)C(N)=S
[1]
  EC50: > 150 µM (not active)
Streptokinase A
  EC50: > 150 µM (not active)
Streptococcus
  EC50: > 150 µM (not active)

## NCCCP(=O)(O)O
Cytochrome P450 3A4
  AC50: 0.158 µM (inconclusive)

## Cc1ccc(C(=O)OC2OC(=O)C(Cl)=C2N2CCOCC2)cc1 (stereo not given)
[1]
  EC50: 0.884 µM (active)
Streptococcus
  EC50: 2.04 µM (active)

## Cc1cccc(C(=O)NNC(=O)c2c(O)c3ccccc3n(C)c2=O)c1
[1]
  EC50: 4.62 µM (active)
Streptokinase A
  EC50: > 150 µM (not active)
Streptococcus
  EC50: 9.81 µM (active)

## Cc1cnc(CNc2ccnc(-c3c(C)noc3C)n2)cn1
Cytochrome P450 3A4
  AC50: 10 µM (inconclusive)

## Cc1nc(N2CCN(Cc3ccccc3)CC2)nc2c1C(=O)CC(C)C2 (stereo not given)
[3]
  EC50: 1.42 µM (active)
[4]
  EC50: > 60 µM (not active)

## COc1ccc(/C=C/C(=O)Nc2cccc(S(=O)(=O)NC3=NCCCCC3)c2)cc1
[2]
  CC50: 27.9 µM (active)

## CCOc1ccccc1NC(=O)NCc1ccc2c(c1)OCO2
[1]
  EC50: > 150 µM (not active)
Streptokinase A
  EC50: > 150 µM (not active)
Streptococcus
  EC50: > 150 µM (not active)

## Cc1cc(C)c2[nH]c(O)c(N=Nc3ccc(C(=O)O)cc3)c2c1
[1]
  EC50: 4.53 µM (active)
Streptokinase A
  EC50: > 150 µM (not active)
Streptococcus
  EC50: 11.1 µM (active)

## COc1ccccc1CN1CCCC(CNC(=O)c2cccc3ccccc23)C1 (stereo not given)
[3]
  EC50: 0.679 µM (active)
[4]
  EC50: > 60 µM (not active)

## CC(=O)Nc1cccc(-c2csc(Nc3ccc(Cl)cn3)n2)c1
[2]
  CC50: 9.11 µM (active)

## Cc1nn(-c2ccc([N+](=O)[O-])cc2)c(O)c1/C=N/CCN1CCN(C(=O)c2ccc(Br)cc2)CC1
[3]
  EC50: 10.7 µM (active)
[4]
  EC50: 39.9 µM (active)

## CCOc1cc2c(cc1OCC)-n1cccc1C(c1cc(OC)ccc1F)NC2 (stereo not given)
[2]
  CC50: 39.8 µM (active)

## CCOC(=O)c1c(NC(=O)CSc2nnnn2-c2ccccc2OCC)sc2c1CC(C)(C)NC2(C)C
[3]
  EC50: 1.31 µM (active)
[4]
  EC50: > 30 µM (not active)

## Cn1nc(-c2ccccc2)c(CSc2ccccc2Cl)c1Cl
[1]
  EC50: 22.8 µM (active)
Streptokinase A
  EC50: 22.8 µM (active)
Streptococcus
  EC50: > 150 µM (not active)

## COc1ccccc1CN1CCCC2(CCN(C(=O)c3ccco3)CC2)C1
Cytochrome P450 3A4
  AC50: 25.1 µM (inconclusive)

## C1=NCCc2c1[nH]c1ccccc21.[O-][Cl+3]([O-])([O-])O
[2]
  CC50: 10.3 µM (active)

## COc1ccc(-n2nc3cc(C)c(NC(=O)C(C)C)cc3n2)cc1
[1]
  EC50: > 150 µM (not active)
Streptokinase A
  EC50: > 150 µM (not active)
Streptococcus
  EC50: > 150 µM (not active)

## c1ccc(Nc2nc3ccccc3[nH]2)nc1
[1]
  EC50: 3.59 µM (active)
Streptokinase A
  EC50: > 150 µM (not active)
Streptococcus
  EC50: > 150 µM (not active)

## CC(=O)NCCn1c(SCc2cc(F)ccc2F)nc2ccccc2c1=O
[3]
  EC50: 0.487 µM (active)
[4]
  EC50: > 60 µM (not active)

## COc1ccc(C(C(=O)NC2CCCCC2)N(C(=O)Cc2c[nH]c3ccccc23)c2ccccc2)cc1OC (stereo not given)
[2]
  CC50: 27.2 µM (active)

## COc1ccc(C(=O)C2CCCN(Cc3ccc4nonc4c3)C2)c(OC)c1 (stereo not given)
[3]
  EC50: 0.97 µM (active)
[4]
  EC50: > 60 µM (not active)

## C/C(=N\NC(=S)Nc1ccccc1C)c1cc2ccccc2o1
[3]
  EC50: 2.18 µM (active)
[4]
  EC50: > 60 µM (not active)
